From patent publication US9808527B2, “Methods and compositions for treating HIV infections” (priority 2006, dated 2017)

How the values were obtained:
[1] = system: multi-drug-resistant clinical HIV-1 variants; assay: p24 assay, PHA-PBMs, panel of multi-drug-resistant clinical HIV-1 isolates; type: cell-based; conditions: Human immunodeficiency virus 1, read-out: IC50 against multi-drug-resistant clinical HIV-1 strains, PHA-PBMs, p24 production
Method: (§1) Drug susceptibility assay. The susceptibility of HIV-1LAI, HIV-2EHO, HIV-2ROD, to various drugs and the cytotoxicity of those drugs was determined by using the MTT assay. Briefly, MT-2 cells (2×10^4/mL) were exposed to 100 TCID50s (50% tissue culture infectious doses) of HIV-1LAI, HIV-2EHO, or HIV-2ROD in the presence or absence of various concentrations of drugs in 96-well microculture plates and were incubated at 37° C. for 7 days. After 100 μL of the medium was removed from each well, 3-(4,5-dimethylthiazol-2-yl)-2,5-diphenyltetrazolium bromide (MTT) solution (10 μL, 7.5 mg/mL in phosphate-buffered saline) was added to each well in the plate, followed by incubation at 37° C. for 4 hours. […] All assays were performed in duplicate or triplicate. To determine the sensitivity of HIV-1Ba-L, HIV-1ERS104 pre, and clinical multi-drug-resistant HIV-1 isolates and different subtypes of HIV-1 isolates to drugs, phytohemagglutinin-activated peripheral blood mononuclear cells (PHA-PBMs; 10^6/mL) were exposed to 50 TCID50 (50% tissue infectious dose) of each HIV-1 isolate and cultured in the presence or absence of various concentrations of drugs in 10-fold serial dilutions in 96-well microtiter culture plates. To determine the drug susceptibility of certain laboratory HIV-1 strains (HIV-1NL4-3), MT-4 cells were used as target cells. MT-4 cells (10^5/mL) were exposed to 100 TCID50 of wild type HIV-1NL4-3 and PI-resistant HIV-1NL4-3 in the presence or absence of various concentrations of drugs and were incubated at 37° C. On day 7 of culture, the supernatant was harvested and the amount of p24 Gag protein was determined by using a fully automated chemiluminescent enzyme immunoassay system (Lumipulse F; Fujirebio Inc., Tokyo, Japan) (22). […] All assays were performed in duplicate or triplicate.
The amino acid substitutions identified in the protease-encoding region of HIV-1ERS104pre, HIV-1TM, HIV-1MM, HIV-1JSL, HIV-1B, HIV-1C, HIV-1G compared to the consensus type B sequence cited from the Los Alamos database include L63P; L10I, K14R, R41K, M46L, I54V, L63P, A71V, V82A, L90M; I93L; L10I, K43T, M46L, I54V, L63P, A71V, V82A, L90M, Q92K; L10I, L24I, I33F, E35D, M36I, N37S, M46L, I54V, R57K, I62V, L63P, A71V, G73S, V82A; L10I, K14R, L33I, M36I, M46I, F53I, K55R, I62V, L63P, A71V, G73S, V82A, L90M, I93L; L10I, I15V, K20R, L24I, M36I, M46L, I54V, I62V, L63P, K70Q, V82A, L89M; and L10I, V11I, T12E, I15V, L19I, R41K, M46L, L63P, A71T, V82A, L90M, respectively. HIV-1ERS104pre served as a source of wild-type HIV-1. The IC50 values were determined by using PHA-PBMs as target cells and the inhibition of p24 Gag protein production by each drug was used as an endpoint. The numbers in parentheses represent the fold changes of IC50 values for each isolate compared to the IC50 values for wild-type HIV-1ERS104pre. All assays were conducted in duplicate or triplicate, and the data shown represent mean values (±1 standard deviations) derived from the results of three independent experiments.

[2] = Cytotoxicity by MTT assay; type: cell-based, Human; conditions: human
Method: as §1

HIV-1 protease = molecular target: T1, HIV-1 protease (Human immunodeficiency virus type 1 group M subtype B, UniProt P04585, C555A/C583A/L521I/L551I/Q495K/V491I); assay: biochemical; type: biochemical
T1 construct: Wild-type PR at final concentrations of 160-190 nM were added
From the text: Enzyme kinetics. The chromogenic substrate Lys-Ala-Arg-Val-Nle-p-nitroPhe-Glu-Ala-Nle-amide (Sigma, St. Louis, Mo.) was used to determine the kinetic parameters (Kovalevsky et al. J Mol Biol 363(1):161-173 (2006), Ghosh et al. J Med Chem 49(17):5252-5261 (2006)). […] The kcat and Km values were obtained employing standard data fitting techniques for a reaction obeying Michaelis-Menten kinetics. The data curves were fitted using SigmaPlot 8.0.2 (SPSS Inc., Chicago, Ill.). The active enzyme concentrations were calculated from the intercept of the linear fit to the IC50 versus [S] plots with the IC50 axis. The Ki values were obtained from the IC50 values estimated from an inhibitor dose-response curve with the spectroscopic assay using the equation Ki=(IC50-[E]/2)/(1+[S]/Km), where [E] and [S] are the PR and substrate concentrations, respectively (Maibaum & Rich J Med Chem 31(34):625-629 (1988)). The Ki values were measured at four to five substrate concentrations. The measurement was repeated at least three times to produce the average values.

[3] = system: HIV-1 isolates of all subtypes (subtypes A, B, C, and E); assay: p24 assay, PHA-PBMs, panel of HIV-1 isolates of subtypes A, B, C, and E; type: cell-based; conditions: Human immunodeficiency virus 1, read-out: IC50 against HIV-1 isolates of subtypes A, B, C, and E
Method: (§2) Drug susceptibility assay. The susceptibility of HIV-1LAI, HIV-2EHO, HIV-2ROD, to various drugs and the cytotoxicity of those drugs was determined by using the MTT assay. Briefly, MT-2 cells (2×10^4/mL) were exposed to 100 TCID50s (50% tissue culture infectious doses) of HIV-1LAI, HIV-2EHO, or HIV-2ROD in the presence or absence of various concentrations of drugs in 96-well microculture plates and were incubated at 37° C. for 7 days. After 100 μL of the medium was removed from each well, 3-(4,5-dimethylthiazol-2-yl)-2,5-diphenyltetrazolium bromide (MTT) solution (10 μL, 7.5 mg/mL in phosphate-buffered saline) was added to each well in the plate, followed by incubation at 37° C. for 4 hours. […] All assays were performed in duplicate or triplicate. […] On day 7 of culture, the supernatant was harvested and the amount of p24 Gag protein was determined by using a fully automated chemiluminescent enzyme immunoassay system (Lumipulse F; Fujirebio Inc., Tokyo, Japan) (22). […]
The IC50 values were determined by using PHA-PBMs as target cells and the inhibition of p24 Gag protein production by each drug was used as an endpoint. […]

[4] = system: HIV-1, HIV-2, and primary HIV-1 strains of different subtypes; assay: Antiviral activity over Tables 1, 2 and 5 (summary); type: cell-based
Method: as §2

[5] = system: HIV-2 strains (HIV-2EHO and HIV-2ROD); assay: MTT assay, MT-2 cells, HIV-2 strains compared with HIV-1LAI; type: cell-based
Method: as §2

CC(C)(C)NC(=O)[C@@H]1CN(Cc2cccnc2)CCN1C[C@@H](O)C[C@@H](Cc1ccccc1)C(=O)N[C@H]1c2ccccc2C[C@H]1O [IDV, indinavir]
IC50 [1]: > 1000 nM

CC(C)CN(CC(O)C(Cc1ccccc1)NC(=O)OC1COC2OCCC12)S(=O)(=O)c1ccc2c(c1)OCO2 (stereo not shown) [GRL-98065]
CC50 at 7 days [2]: 35.7 µM
Ki (HIV-1 protease): 0.014 nM
IC50 [1]: ≤ 6 nM
IC50 [3]: 0.2 to 0.5 nM
IC50 [4]: 0.2 to 4.5 nM
factor by which potency against HIV-2 strains is less than against HIV-1LAI [5]: 6-9

CC(C)c1nc(CN(C)C(=O)N[C@H](C(=O)N[C@@H](Cc2ccccc2)C[C@H](O)[C@H](Cc2ccccc2)NC(=O)OCc2cncs2)C(C)C)cs1 [RTV, ritonavir]
IC50 [1]: > 1000 nM

CC(C)(C)NC(=O)[C@@H]1C[C@@H]2CCCC[C@@H]2CN1C[C@@H](O)[C@H](Cc1ccccc1)NC(=O)[C@H](CC(N)=O)NC(=O)c1ccc2ccccc2n1 [SQV, Saquinavir]
IC50 [1]: 140 to 290 nM

Cc1c(O)cccc1C(=O)N[C@@H](CSc1ccccc1)[C@H](O)CN1C[C@H]2CCCC[C@H]2C[C@H]1C(=O)NC(C)(C)C [NFV, Nelfinavir]
IC50 [1]: > 1000 nM
